Assay results from patent US20090280483A1, “Methods for Screening Interleukin-6 (IL-6) Signal Transduction Inhibitors” (priority 2005, published 2009).
Each block holds one molecule with its values, some of them ahead of it.

Legend:
[1] = system: KT-3 cells; experiment: Negative screening: IL-6-dependent proliferation of KT-3 cells (FACS); type: cell-based; conditions: 10 μM (No. 4 at 2 μM), human IL-6 5 ng/ml, 48 hours
Method: Human tumor cell line KT-3 cells known to have the property of proliferating by IL-6 stimulation were used for negative screening.
KT-3 cells were grown to confluency, and plated on 6-well plates at 1×10^5 cells/well in RPMI medium supplemented with 10% fetal calf serum (FCS) containing human IL-6 (5 ng/ml). After incubation for 3 hours, dimethyl sulfoxide (DMSO) and the 18 compounds (Nos. 1-18) each at a final concentration of 10 μM (except for No. 4 at 2 μM) were added, and incubation was continued for 48 hours.
The human tumor cell line KT-3 cells treated as above were suspended at about 1×10^6 cells/100 μl in RPMI medium supplemented with 10% FCS. Then, FSC/SSC dot plots of these cells were obtained by using FACS Calibur (Becton Dickinson).

[2] = target: T1, STAT3 (Homo sapiens, UniProt P40763); experiment: Luciferase assay of IL-6-induced transcriptional activity of STAT3 in 293T cells; type: cell-based; conditions: GFAP promoter firefly luciferase reporter, 20 μM for 1 hour, then human IL-6 10 ng/ml for 16 hours
T1 construct: Exponentially proliferating 293T cells cultured in Dulbecco's Modified Eagle's Medium; endogenous in cells; host or cells: 293T cells
Method: A reporter vector (2 μg) containing the firefly luciferase gene linked downstream of the glial fibrillary acidic protein (GFAP) gene promoter sequence and an internal control vector (0.1 μg) containing the EF1 gene promoter linked to the Renilla luciferase gene were transfected into 293T cells at 1×10^6 cells/well in 12-well plates using Lipofectamine Plus Reagent (Life Technologies, Bethesda, Md.) as instructed by the manufacturer. Twenty-three hours after the transfection, dimethyl sulfoxide (DMSO) and Compounds No. 1, 2, 4, 7, 10, 13, 14 and 16 each at a final concentration of 20 μM were added. One hour after the compounds were added, the cells treated with each compound were divided into two equal parts and stimulated or not with human IL-6 at a final concentration of 10 ng/ml. After 16 hours, cell extracts were prepared from the cells and measured for the specific activity of firefly luciferase to Renilla luciferase using Dual luciferase reporter system (Promega, Madison, Wis.).

[3] = target: T2, STAT3 (Mus musculus, UniProt P42227); experiment: Western blotting of IL-6-induced tyrosine phosphorylation of STAT3 in M1 cells; type: cell-based, murine
T2 construct: Exponentially proliferating M1 cells cultured in RPMI medium; endogenous in cells; host or cells: M1 cells
Method: Exponentially proliferating M1 cells cultured in RPMI medium supplemented with 10% fetal calf serum (FCS) in culture dish were treated with dimethyl sulfoxide (DMSO) and Compound No. 1, 2, 7, 10, 13, 14 or 16 at a final concentration of 10 μM for 30 minutes. Then, the cells were divided into two equal parts and incubated with or without murine IL-6 at a final concentration of 10 ng/ml for further 1 hour. Then, the M1 cells were suspended at a density of 1×10^7 cells/ml in lysis buffer (0.5% Triton X-100, 50 mM Tris-HCl, (pH7.5), 0.1 mM EDTA, 150 mM NaCl, 200 μM Na3VO4, 50 mM NaF, 1 mM dithiothreitol (DTT), 0.4 mM phenylmethylsulfonyl fluoride (PMSF), 3 μg/mL aprotinin, 2 μg/mL pepstatin A, 1 μg/mL leupeptin) and placed on ice for 30 minutes. The precipitate was removed by centrifuging the cell lysate at 12000 g for 15 minutes.
The samples thus obtained were separated by sodium dodecyl sulfate-polyacrylamide gel electrophoresis (SDS-PAGE). After the electrophoresis, the gel was placed on a PVDF transfer membrane prewetted in methanol for 10-20 seconds and then soaked in transfer buffer (25 mM tris, 192 mM glycine, 10% methanol, 0.1% SDS), and the assembly was sandwiched between two layers each consisting of 5 sheets of filter paper soaked in transfer buffer, whereby proteins were transferred to the transfer membrane using a semi-dry transfer method.
After transfer, the transfer membrane was shaken in blocking buffer (5% BSA, 1% BSA, 0.1% NaN3) for 30 minutes or more. Then, the membrane was washed with PBST (137 mM NaCl, 2.7 mM KCl, 1.5 mM KH2PO4, 8.1 mM Na2HPO4, 0.05% Tween20) three times for 5 minutes by shaking. The membrane was shaken for 60 minutes in an anti-STAT3 polyclonal antibody (C-20, Santa Cruz Biotechnology, Santa Cruz, Calif.) and an anti-phosphorylated STAT3 monoclonal antibody (B-7, Santa Cruz Biotechnology) as primary antibodies both diluted 1:1000 in PBST.
Then, the membrane was washed with PBST three times for 5 minutes by shaking. […]

[4] = system: ERK1/2; experiment: Western blotting of IL-6-induced phosphorylation of ERK1/2 in M1 cells; type: cell-based; conditions: murine IL-6 10 ng/ml, time course 0 to 24 hours
[5] = target: T1, STAT3; experiment: Western blotting of IL-6-induced tyrosine phosphorylation of STAT3 in 293T cells; type: cell-based; conditions: 20 μM for 1 hour, then IL-6 10 ng/ml for 16 hours
Method: Exponentially proliferating 293T cells cultured in Dulbecco's Modified Eagle's Medium (DMEM) supplemented with 10% fetal calf serum (FCS) in culture dish were incubated with dimethyl sulfoxide (DMSO) and Compounds No. 1, 2, 4, 7, 10, 13, 14 or 16 at a final concentration of 20 μM for 1 hour. Then, the cells were divided into two equal parts and incubated with or without murine IL-6 at a final concentration of 10 ng/ml for further 16 hours. Then, the 293T cells were suspended at a density of 1×10^7 cells/ml in lysis buffer, and placed on ice for 30 minutes. The precipitate was removed by centrifuging the cell lysate at 12000 g for 15 minutes.
The subsequent Western blot step was performed by the method described above.

T2 sequence (P42227 whole entry): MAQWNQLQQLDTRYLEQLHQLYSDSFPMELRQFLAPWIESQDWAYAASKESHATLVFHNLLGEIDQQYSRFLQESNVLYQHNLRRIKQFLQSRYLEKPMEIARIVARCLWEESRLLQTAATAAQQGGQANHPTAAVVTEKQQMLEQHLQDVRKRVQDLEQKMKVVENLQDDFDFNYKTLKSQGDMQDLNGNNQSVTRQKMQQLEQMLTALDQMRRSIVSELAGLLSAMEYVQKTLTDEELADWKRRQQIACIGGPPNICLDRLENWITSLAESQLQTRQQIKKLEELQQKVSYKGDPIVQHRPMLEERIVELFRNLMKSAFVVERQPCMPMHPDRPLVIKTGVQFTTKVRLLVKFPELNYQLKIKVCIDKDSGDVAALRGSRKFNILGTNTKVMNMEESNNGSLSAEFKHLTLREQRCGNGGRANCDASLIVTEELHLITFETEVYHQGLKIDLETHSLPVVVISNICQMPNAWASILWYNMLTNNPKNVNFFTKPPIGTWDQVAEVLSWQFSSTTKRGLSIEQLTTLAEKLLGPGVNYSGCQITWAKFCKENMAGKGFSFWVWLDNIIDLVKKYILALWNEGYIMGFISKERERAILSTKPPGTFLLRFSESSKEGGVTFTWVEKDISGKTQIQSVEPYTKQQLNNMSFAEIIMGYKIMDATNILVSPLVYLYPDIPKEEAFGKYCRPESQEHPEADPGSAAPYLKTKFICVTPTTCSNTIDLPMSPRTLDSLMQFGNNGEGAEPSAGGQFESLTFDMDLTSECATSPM
T1 sequence (P40763 whole entry): as the sequence (P42227 whole entry) above, with D760E counted along it

SMILES: Br.O=[N+]([O-])c1ccc(-c2csc(Nc3cc(C(F)(F)F)cc(C(F)(F)F)c3)n2)cc1 [Compound No. 1]
inhibition of IL-6-dependent proliferation of KT-3 cells [1]: inhibition of cell proliferation

inhibitory effect on the transcriptional activity of STAT3 [2]: obvious inhibitory effect | inhibition of tyrosine phosphorylation of STAT3 (time course) ([3]; murine IL-6 10 ng/ml, at 3, 6, and 24 hours after the compound was added): obvious inhibition | inhibition of tyrosine phosphorylation of STAT3 [5]: obvious inhibition
SMILES: Br.O=[N+]([O-])c1ccc(-c2csc(Nc3cc(C(F)(F)F)cc(C(F)(F)F)c3)n2)cc1 [Compound No. 2]
influence on the phosphorylation of ERK1/2 induced by IL-6 [4]: no influence

inhibition of tyrosine phosphorylation of STAT3 ([3]; 10 μM for 30 minutes, then murine IL-6 10 ng/ml for 1 hour): obvious inhibition | inhibition of tyrosine phosphorylation of STAT3 (time course) ([3]; 10 μM, IL-6 10 ng/ml, at 3 hours or later after the compounds were added): inhibition
SMILES: Br.O=[N+]([O-])c1ccc(-c2csc(Nc3cc(C(F)(F)F)cc(C(F)(F)F)c3)n2)cc1 [compound 13]
